These are literature values, as cited in patent publication US11369672B2 (priority 2012, dated 2022).

In brackets after ≈: the same amount, converted by molar mass.

In the series the test system is Mtb H37Rv.

On to `CO[C@H]1/C=C/O[C@@]2(C)Oc3c(C)c(O)c4c(O)c(c(/C=N/N5CCN(C)CC5)c(O)c4c3C2=O)NC(=O)/C(C)=C\C=C\[C@H](C)[C@H](O)[C@@H](C)[C@@H](O)[C@@H](C)[C@H](OC(C)=O)[C@@H]1C` [RIF, rifampin], for which the minimum inhibitory concentration is 0.25 µM (≈ 0.206 µg/mL).
